In general, melting point refers to the temperature of the solid-liquid transition. `Nc1nc(C(=O)NC2CCc3ccccc32)cc(-c2ccco2)n1` (stereo in doubt) [Example 78, (R)-2-Amino-6-(2-furyl)-N-(1-indanyl)pyrimidine-4-carboxamide] registered a melting point of 126.7 to 127.2 °C.
The molecule `Nc1nc(C(=O)NC2CCc3ccccc32)cc(-c2ccco2)n1` (stereo in doubt) [Example 79, (S)-2-Amino-6-(2-furyl)-N-(1-indanyl)pyrimidine-4-carboxamide] came in with a melting point of 111.8 to 112.5 °C.
Consider `COc1cccc(CNC(=O)c2cc(-c3ccco3)nc(N)n2)c1` [Example 3, 2-Amino-6-(2-furyl)-N-(3-methoxybenzyl)pyrimidine-4-carboxamide], for which the melting point lay within 229.2 to 234.5 °C.
For `Nc1nc(C(=O)N2CCCCC2)cc(-c2ccco2)n1` [Example 5, 1-(2-Amino-6-(2-furyl)pyrimidin-4-ylcarbonyl)piperidine] the value was 139.5 to 143 °C.
For `NC(=O)c1cc(-c2ccco2)nc(N)n1` [Example 8, 2-Amino-6-(2-furyl)pyrimidine-4-carboxamide] the value was 218 to 219.8 °C; for `CN(C)c1ccc(CNC(=O)c2cc(-c3ccco3)nc(N)n2)cc1` [Example 9, 2-Amino-6-(2-furyl)-N-(4-dimethylaminobenzyl)pyrimidine-4-carboxamide], 202.4 to 202.9 °C; for `Nc1nc(C(=O)NCc2cccc(C(F)(F)F)c2)cc(-c2ccco2)n1` [Example 16, 2-Amino-N-(3-trifluoromethylbenzyl)-6-(2-furyl)pyrimidine-4-carboxamide], 170.6 to 170.7 °C.
Molecule `Nc1nc(C(=O)NCc2nc3ccccc3[nH]2)cc(-c2ccco2)n1` [Example 17, 2-Amino-N-(1H-benzimidazol-2-ylmethyl)-6-(2-furyl)pyrimidine-4-carboxamide] gave a melting point of 290.9 to 291.3 °C.
For `Nc1nc(C(=O)NCc2ncccc2CN2CCOCC2)cc(-c2ccco2)n1` [Example 22, 2-Amino-6-(2-furyl)-N-(3-(4-morpholinylmethyl)pyridin-2-ylmethyl)pyrimidine-4-carboxamide] the value was 195.5 to 197.5 °C.
Molecule `COc1nc(C)ccc1CNC(=O)c1cc(-c2ccco2)nc(N)n1` [Example 29, 2-Amino-6-(2-furyl)-N-(2-methoxy-6-methylpyridin-3-ylmethyl)pyrimidine-4-carboxamide] gave a melting point of 178 to 178.1 °C.
For `Cn1ccnc1CNC(=O)c1cc(-c2ccco2)nc(N)n1` [Example 34, 2-Amino-6-(2-furyl)-N-(1-methyl-1H-imidazol-2-ylmethyl)pyrimidine-4-carboxamide], the melting point lay in the range of 209.5 to 210.3 °C.
In turn, `Nc1nc(C(=O)NCc2ccc3[nH]ccc3c2)cc(-c2ccco2)n1` [Example 35, 2-Amino-6-(2-furyl)-N-(5-indolylmethyl)pyrimidine-4-carboxamide] returned a melting point of 170.1 to 170.5 °C.
For `Cc1[nH]c2ccc(CNC(=O)c3cc(-c4ccco4)nc(N)n3)cc2c1C` [Example 36, 2-Amino-N-(2,3-dimethylindol-5-ylmethyl)-6-(2-furyl)pyrimidine-4-carboxamide], the melting point fell in the range of 155.9 to 156 °C.
For `Cc1cc(CNC(=O)c2cc(-c3ccco3)nc(N)n2)ccc1[N+](=O)[O-]` [Example 37, 2-Amino-6-(2-furyl)-N-(3-methyl-4-nitrobenzyl)pyrimidine-4-carboxamide] the value was 191.8 to 192.2 °C; for `Cc1cc2cc(CNC(=O)c3cc(-c4ccco4)nc(N)n3)ccc2[nH]1` [Example 40, 2-Amino-6-(2-furyl)-N-(2-methylindol-5-ylmethyl)pyrimidine-4-carboxamide], 105.6 to 105.7 °C.
Turning to `CC(C)NC(=O)OCc1cccc(CNC(=O)c2cc(-c3ccco3)nc(N)n2)n1` [Example 41, 6-(2-Amino-6-(2-furyl)pyrimidine-4-carboxamidomethyl)pyridin-2-ylmethyl isopropylcarbamate], the melting point was 155.2 to 155.7 °C.
In the case of `COCc1ccc(C)c(CNC(=O)c2cc(-c3ccco3)nc(N)n2)n1` [Example 46, 2-Amino-6-(2-furyl)-N-(6-methoxymethyl-3-methylpyridin-2-ylmethyl)pyrimidine-4-carboxamide], the melting point was 148 to 148.4 °C.
With `Nc1nc(C(=O)NCc2ccc3cc[nH]c3c2)cc(-c2ccco2)n1` [Example 48, 2-Amino-6-(2-furyl)-N-(6-indolylmethyl)pyrimidine-4-carboxamide], the melting point is 193.8 to 194 °C.
`Nc1nc(C(=O)NCc2cccc3cccnc23)cc(-c2ccco2)n1` [Example 49, 2-Amino-6-(2-furyl)-N-(quinolin-8-ylmethyl)pyrimidine-4-carboxamide] displayed a melting point of 230.7 to 230.9 °C.
As for `Nc1nc(C(=O)NCc2ccc3nsnc3c2)cc(-c2ccco2)n1` [Example 53, 2-Amino-N-([2,1,3]benzothiadiazol-5-ylmethyl)-6-(2-furyl)pyrimidine-4-carboxamide], the melting point was 171.2 to 172.1 °C.
Regarding `Nc1nc(C(=O)NCc2ccc3ccccc3n2)cc(-c2ccco2)n1` [Example 57, 2-Amino-6-(2-furyl)-N-(quinolin-2-ylmethyl)pyrimidine-4-carboxamide], the melting point lay in the range of 180.9 to 181.4 °C.
With `Nc1nc(C(=O)NCc2nc3ccccc3s2)cc(-c2ccco2)n1` [Example 58, 2-Amino-N-(benzothiazol-2-ylmethyl)-6-(2-furyl)pyrimidine-4-carboxamide], the melting point was in the range of 219.9 to 222.3 °C.
The molecule `Cc1ccc(COCC2CC2)nc1CNC(=O)c1cc(-c2ccco2)nc(N)n1` [Example 59, 2-Amino-N-(6-cyclopropylmethoxymethyl-3-methylpyridin-2-ylmethyl)-6-(2-furyl)pyrimidine-4-carboxamide] had a melting point of 154.5 to 156.9 °C.
For `C[C@H](NC(=O)c1cc(-c2ccco2)nc(N)n1)c1ccccc1` [Example 60, (S)-2-Amino-6-(2-furyl)-N-(1-phenylethyl)pyrimidine-4-carboxamide] the value was 158.7 to 158.9 °C; for `C[C@@H](NC(=O)c1cc(-c2ccco2)nc(N)n1)c1ccccc1` [Example 63, (R)-2-Amino-6-(2-furyl)-N-(1-phenylethyl)pyrimidine-4-carboxamide], 158.8 to 159.1 °C; for `Nc1nc(C(=O)N2Cc3ccccc3C2)cc(-c2ccco2)n1` [Example 66, 2-(2-Amino-6-(2-furyl)pyrimidin-4-ylcarbonyl)-2,3-dihydro-1H-isoindole], 226.2 to 226.3 °C.
Consider `Nc1nc(C(=O)N2CCc3ccccc3C2)cc(-c2ccco2)n1` [Example 71, 2-(2-Amino-6-(2-furyl)pyrimidin-4-ylcarbonyl)-1,2,3,4-tetrahydroisoquinoline], for which the melting point is 193.3 to 193.6 °C.
For `Nc1nc(C(=O)N2CCCc3ccccc32)cc(-c2ccco2)n1` [Example 72, 1-(2-Amino-6-(2-furyl)pyrimidin-4-ylcarbonyl)-1,2,3,4-tetrahydroquinoline] the value was 203.8 to 204.5 °C; for `Nc1nc(C(=O)N2CCc3ccccc32)cc(-c2ccco2)n1` [Example 75, 1-(2-Amino-6-(2-furyl)pyrimidin-4-ylcarbonyl)-2,3-dihydroindole], 251.9 to 252.3 °C.
